# Measured values published in paper PMC3366684, “Studies on the Synthesis of Derivatives of Marine-Derived Bostrycin and Their Structure-Activity Relationship against Tumor Cells” (Marine Drugs, 2012).
# What was measured:
# [1] = system: HepG2 cells; test: MTT cytotoxicity assay, HepG2; format: cell-based, human; conditions: Homo sapiens, HepG2, 48 h, human liver cancer cell line; MTT, 48 h exposure; mean ± SD, three independent experiments
# Protocol: (§1) All compounds were evaluated for their in vitro cytotoxic activity against five human cancer cell lines including human breast MCF-7, human breast MDA-MB-435, human lung A549, human liver HepG2 and human colon HCT-116, and compared with their effects on the immortalized human breast epithelial cell line MCF-10A by MTT assay using epirubicin (an anticancer drug used widely in the clinic) as positive control.
# (§2) MCF-7, MDA-MB-435, A549, HepG2 and HCT-116 cells were cultured in Dulbecco’s modification Eagle’s medium (DMEM, Invitrogen, Carlsbad, CA, USA) supplemented with 10% fetal bovine serum (FBS, Hyclone, Logan, UT, USA), 2 mM L-glutamine, 100 μg/mL streptomycin and 100 U/mL penicillin (Invitrogen). MCF-10A cells were cultured in keratinocyte serum free medium (KSFM) supplemented with 0.1–0.2 ng/mL human recombinant epidermal growth factor and 20–30 μg/mL bovine pituitary extract (Invitrogen). The cells were incubated at 37 °C in a humidified atmosphere with 5% CO2.
# (§3) Cells were harvested during logarithmic growth phase and seeded in 96-well plates at a density of 1 × 10^4 cells/mL, and cultured at 37 °C in a humidified incubator (5% CO2) for 24 h, followed by exposure to various concentrations of compounds tested for 48 h. Subsequently 20 μL of MTT (Genview, Houston, TX, USA) solution (5 mg/mL) was added to each well and mixed, the cells were then incubated for an additional 4 h. Culture supernatant was moved, 150 μL of DMSO (Sangon Biotech, Shanghai, China) was added to each well to fully dissolve the MTT-formazan crystals. Cell growth inhibition was determined by measuring the absorbance (Abs) at λ = 570 nm using a microplate reader and calculated according to the following equation:
# (§4) Growth inhibition = (1 − OD of treated cells/OD of control cells) × 100%
# (§5) The half maximal inhibitory concentrations (IC50) were obtained from liner regression analysis of the concentration-response curves plotted for each tested compound.
# [2] = system: A549 cells; test: MTT cytotoxicity assay, A549; format: cell-based, human; conditions: A549; human lung cancer cell line; MTT, 48 h exposure; mean ± SD, three independent experiments
# Protocol: as §1, §2, §3, §4, §5
# [3] = MTT cytotoxicity assay, MCF-10A; format: cell-based; conditions: MCF-10A cells, immortalized human breast epithelial cell line, 48 h exposure, mean ± SD, three independent experiments
# Protocol: as §1, §2, §3, §4, §5
# [4] = system: MCF-7 cells; test: MTT cytotoxicity assay, MCF-7; format: cell-based, human; conditions: MCF7; human breast cancer cell line; MTT, 48 h exposure; mean ± SD, three independent experiments
# Protocol: as §1, §2, §3, §4, §5
# [5] = system: HCT-116 cells; test: MTT cytotoxicity assay, HCT-116; format: cell-based, human; conditions: HCT-116; human colon cancer cell line; MTT, 48 h exposure; mean ± SD, three independent experiments
# Protocol: as §1, §2, §3, §4, §5
# [6] = system: MDA-MB-435 cells; test: MTT cytotoxicity assay, MDA-MB-435; format: cell-based, human; conditions: MDA-MB-435; human breast cancer cell line; MTT, 48 h exposure; mean ± SD, three independent experiments
# Protocol: as §1, §2, §3, §4, §5
melting point,Structure (SMILES),IC50 [1],IC50 [2],IC50 at 48 h [3],IC50 [4],IC50 [5],IC50 [6]
200 to 201 °C,"COC1=CC(=O)c2c(O)c3c(c(O)c2C1=O)C[C@]1(C)OC(C=C(C)C)O[C@@H]1[C@H]3O (some centres unmarked) [Compound 6, 2,3-O-(3′-methylbut-2′-enyl) Bostrycin]",22.3 ± 2.89 µM,5.5 ± 0.24 µM,34.1 ± 0.85 µM,7.99 ± 0.09 µM,7.83 ± 0.32 µM,11.7 ± 1.18 µM
210 to 211 °C,"CCCNC1=CC(=O)c2c(O)c3c(c(O)c2C1=O)C[C@](C)(O)[C@H](O)[C@H]3O [Compound 10, 6-(n-Propylamino)-6-demethoxybostrycin]",18 ± 0.6 µM,21.5 ± 1.43 µM,> 50 µM,14 ± 0.98 µM,26.4 ± 0.89 µM,> 50 µM
224 to 225 °C,"COC1=CC(=O)c2c(O)c3c(c(O)c2C1=O)C[C@](C)(O)[C@H](O)C3 [Compound 2, Deoxybostrycin]",9.99 ± 0.55 µM,4.49 ± 0.13 µM,13.8 ± 0.76 µM,2.69 ± 0.31 µM,5.69 ± 0.25 µM,3.19 ± 0.92 µM
221 to 222 °C,"C[C@]1(O)Cc2c(O)c3c(c(O)c2[C@H](O)[C@H]1O)C(=O)C=C(N1CCC(c2ccccc2)CC1)C3=O [Compound 22, 6-(4′-Phenylpiperidin-1-yl)-6-demethoxybostrycin]",6.61 ± 1.12 µM,0.76 ± 0.03 µM,,4.81 ± 0.4 µM,0.75 ± 0.05 µM,0.95 ± 0.13 µM
150 to 151 °C,"C[C@]1(O)Cc2c(O)c3c(c(O)c2[C@H](O)[C@H]1O)C(=O)C(SCCCO)=C(SCCCO)C3=O [Compound 27, 6,7-bis(3′-Hydroxy-n-propylthio)-6-demethoxybostrycin]",3.18 ± 0.75 µM,7.31 ± 0.58 µM,,6.01 ± 0.39 µM,3.08 ± 0.35 µM,3.19 ± 0.15 µM
147 to 148 °C,"C[C@]1(O)Cc2c(O)c3c(c(O)c2[C@H](O)[C@H]1O)C(=O)C=C(NCc1ccc(F)cc1)C3=O [Compound 19, 6-(p-Fluorobenzylamino)-6-demethoxybostrycin]",> 50 µM,6.25 ± 0.43 µM,7.5 ± 0.69 µM,7.94 ± 0.26 µM,4.92 ± 0.38 µM,7.86 ± 1.2 µM
> 300 °C,"COC1=CC(=O)c2c(cc3c(c2O)C[C@@H](O)[C@@](C)(O)C3)C1=O [Compound 3, Nigrosporin B]",31 ± 0.71 µM,4.72 ± 0.17 µM,28.6 ± 0.91 µM,6.19 ± 0.6 µM,4.7 ± 0.39 µM,2.91 ± 0.18 µM
112 to 113 °C,"C[C@]1(O)Cc2c(O)c3c(c(O)c2[C@H](O)[C@H]1O)C(=O)C=C(NCCOCCO)C3=O [Compound 14, 6-[(2″-Hydroxyethoxy)ethylamino]-6-demethoxybostrycin]",> 50 µM,> 50 µM,> 50 µM,> 50 µM,> 50 µM,> 50 µM
228 to 229 °C,"COC1=CC(=O)c2c(O)c3c(c(O)c2C1=O)C[C@]1(C)OC(C)(C)O[C@@H]1[C@H]3O [Compound 5, 2,3-O-(isopropylidene) Bostrycin]",37 ± 1.97 µM,4.25 ± 0.16 µM,18.1 ± 1.3 µM,6.87 ± 0.33 µM,11 ± 1.35 µM,5.96 ± 0.21 µM
112 to 113 °C,"CCCCCCSC1=C(SCCCCCC)C(=O)c2c(O)c3c(c(O)c2C1=O)C[C@](C)(O)[C@H](O)[C@H]3O [Compound 25, 6,7-bis(n-Hexylthio)-6-demethoxybostrycin]",3.33 ± 0.66 µM,0.71 ± 0.01 µM,35 ± 1.94 µM,2.6 ± 0.45 µM,0.74 ± 0.1 µM,10.6 ± 1.11 µM
226 to 227 °C,"C[C@]1(O)Cc2c(O)c3c(c(O)c2[C@H](O)[C@H]1O)C(=O)C=C(Nc1ccccc1)C3=O [Compound 15, 6-(Phenylamino)-6-demethoxybostrycin]",> 50 µM,4.87 ± 0.43 µM,41.6 ± 0.51 µM,3.72 ± 0.27 µM,4.84 ± 0.25 µM,10.3 ± 0.45 µM
203 to 204 °C,"CCCCCCNC1=CC(=O)c2c(O)c3c(c(O)c2C1=O)C[C@](C)(O)[C@H](O)[C@H]3O [Compound 12, 6-(n-Hexylamino)-6-demethoxybostrycin]",12.9 ± 0.96 µM,3.74 ± 0.67 µM,,4.87 ± 0.23 µM,4.06 ± 0.65 µM,4.25 ± 0.75 µM
233 to 234 °C,"COC1=CC(=O)c2c(O)c3c(c(O)c2C1=O)C[C@]1(C)OCO[C@@H]1[C@H]3OCO [Compound 7, 1-O-(hydroxymethyl)-2,3-O-(methylene) Bostrycin]",4.58 ± 0.5 µM,0.78 ± 0.04 µM,4.79 ± 0.52 µM,2.52 ± 0.26 µM,3.06 ± 0.1 µM,4.25 ± 0.57 µM
180 to 181 °C,"CCSC1=C(SCC)C(=O)c2c(O)c3c(c(O)c2C1=O)C[C@](C)(O)[C@H](O)[C@H]3O [Compound 23, 6,7-bis(Ethylthio)-6-demethoxybostrycin]",6.9 ± 0.26 µM,4.07 ± 0.51 µM,14.8 ± 0.96 µM,0.71 ± 0.01 µM,0.95 ± 0.06 µM,0.76 ± 0.06 µM
202 to 203 °C,"COc1ccc(NC2=CC(=O)c3c(O)c4c(c(O)c3C2=O)C[C@](C)(O)[C@H](O)[C@H]4O)cc1 [Compound 16, 6-(p-Methoxyphenylamino)-6-demethoxybostrycin]",30.3 ± 1.63 µM,41.4 ± 2.86 µM,,39.4 ± 0.68 µM,43.3 ± 1.56 µM,36.4 ± 2.08 µM
,"COC1=CC(=O)c2c(O)c3c(c(O)c2C1=O)C[C@](C)(O)[C@H](O)[C@H]3O [Compound 1, Bostrycin]",7.71 ± 0.72 µM,2.63 ± 0.33 µM,14.1 ± 0.58 µM,2.18 ± 0.14 µM,4.78 ± 0.03 µM,2.82 ± 0.17 µM
,"COc1cccc2c1C(=O)c1c(O)c3c(c(O)c1C2=O)C[C@@](O)(C(=O)CO)C[C@@H]3O[C@H]1C[C@H](N)[C@@H](O)[C@H](C)O1 [epirubicin, reference compound]",0.96 ± 0.02 µM,0.61 ± 0.05 µM,0.48 ± 0.08 µM,0.96 ± 0.08 µM,0.48 ± 0.03 µM,0.56 ± 0.06 µM
,"CNC1=CC(=O)c2c(O)c3c(c(O)c2C1=O)C[C@](C)(O)[C@H](O)[C@H]3O [Compound 9, 6-(Methylamino)-6-demethoxybostrycin]",22.4 ± 1.16 µM,31.1 ± 1.94 µM,> 50 µM,3.58 ± 0.65 µM,34.2 ± 1.27 µM,> 50 µM
199 to 200 °C,"C[C@]1(O)Cc2c(O)c3c(c(O)c2[C@H](O)[C@H]1O)C(=O)C=C(N1CCCCC1)C3=O [Compound 20, 6-(Piperidin-1-yl)-6-demethoxybostrycin]",1.99 ± 0.17 µM,3.16 ± 0.23 µM,,3.14 ± 0.31 µM,2.81 ± 0.31 µM,4.04 ± 0.35 µM
146 to 147 °C,"CC1SC2=C(SC1C)C(=O)c1c(O)c3c(c(O)c1C2=O)C[C@](C)(O)[C@H](O)[C@H]3O (some centres unmarked) [Compound 29, 6,7-(Butan-2′,3′-yl-dithio)-6-demethoxybostrycin]",2.55 ± 0.55 µM,4.06 ± 0.35 µM,,3.18 ± 0.22 µM,0.73 ± 0.02 µM,0.55 ± 0.11 µM
162 to 163 °C,"CC1CCN(C2=CC(=O)c3c(O)c4c(c(O)c3C2=O)C[C@](C)(O)[C@H](O)[C@H]4O)CC1 [Compound 21, 6-(4′-Methylpiperidin-1-yl)-6-demethoxybostrycin]",6.09 ± 1.14 µM,3.06 ± 0.46 µM,,4.62 ± 0.44 µM,3.25 ± 0.67 µM,6.38 ± 0.47 µM
156 to 158 °C,"C[C@]1(O)Cc2c(O)c3c(c(O)c2[C@H](O)[C@H]1O)C(=O)C(SCCO)=C(SCCO)C3=O [Compound 26, 6,7-bis(2′-Hydroxyethylthio)-6-demethoxybostrycin]",22.7 ± 1.95 µM,26.1 ± 3.15 µM,,14.4 ± 0.42 µM,12 ± 1.53 µM,13.3 ± 0.2 µM
